Reference: article PMC11099041, “Tissue distribution and retention drives efficacy of rapidly clearing VHL-based PROTACs” (Communications Medicine, 2024)

Assays:
[1] = rat, in vivo
Source text: Male Sprague Dawley rats, intact or bile-cannulated, were from Envigo RMS, Inc. The animals were acclimated to study conditions for five days prior to dose administration. During acclimation, animals were individually housed in suspended, stainless steel, wire-mesh cages. During the test period, animals were placed in Nalgene cages designed for the collection of urine, feces, and bile. Certified Rodent Diet #2016C or 2016CM (Envigo RMS, Inc.) were provided ad libitum. Water was provided fresh daily. Environmental controls for the animal room were set to maintain a temperature of 20-26 °C, a relative humidity of 50 ± 20%, and a 12-hour light/12-hour dark cycle. […] Three BDC rats were used for collection of bile, urine, and feces, five intact rats for collection of plasma, blood, urine, feces, and tissues, and eight intact rats for collection of blood and carcasses for QWBA. […] The vehicle for the IV dose was 20% 2-hydroxypropyl-β-cyclodextrin (HP-β-CD) in 50 mM sodium acetate buffer, pH 4.0. […] The supernatant was removed, and the formulation appeared to be a very slight yellow solution. Stability was checked by HPLC analysis of pre- and post-dose aliquots. Animals were not fasted. The actual amount administered was determined by weighing the dose syringe before and after dose administration. The IV dose of 4 mg/kg was administered via a tail vein. For QWBA rats, one animal/time point was prepared for QWBA at approximately 0.25, 1, 4, 8, 24, 48, 168, and 336 hours. […] Blood was maintained on wet ice until being aliquoted for radioanalysis and centrifuged to obtain plasma. […] Each carcass was drained, blotted dry, placed into an appropriately labeled bag, and placed on dry ice or stored at ~-70 °C for at least 2 hours. The frozen carcasses were embedded in chilled carboxymethylcellulose and frozen into blocks. Embedded carcasses were stored at ~-20 °C in preparation for autoradiographic analysis. The samples were stored at -70 °C before analysis. […] Prior to section collection, standards fortified with ^14C radioactivity were placed into the frozen block containing the carcass and were used for monitoring the uniformity of section thickness. Appropriate sections were collected on adhesive tape at 40 μm thickness, in a Leica CM 3600 cryomicrotome in accordance with Covance standard operating procedures. Sections were collected at five levels of interest in the sagittal plane. All major tissues, organs, and biological fluids were represented. Collected sections were dried at ~-20 °C. A section set from each animal was prepared by mounting a representative section from each level of interest. Mounted sections were tightly wrapped with Mylar film and exposed on phosphor-imaging screens along with fortified blood standards for subsequent calibration of the image analysis software. Screens were exposed for 4 days. Exposed screens were scanned using a Typhoon scanner. The autoradiographic standard image data were sampled using InterFocus Imaging Ltd. MCIDTM Analysis software to create a calibrated standard curve. Specified tissues, organs, and fluids were analyzed. […] Tissue concentration data are presented in tabular format. Autoradiographs were annotated. The mean time concentration profile was generated for each group, and an overall AUC was then calculated with these sparse samples of rats and mice. […]

[2] = Metabolite profiling in rat bile, urine and feces (radio-HPLC, LC-HRMS); assay type: in vivo; details: in vivo, iv, 4 mg/kg
Procedure: Tissue homogenate samples at 24 hours were extracted as plasma samples. […] The pooled urine samples containing 10% MeOH were analyzed by liquid chromatography-high resolution mass spectrometry (LC-HRMS).
The pooled bile sample containing 10% MeOH was analyzed by LC-HRMS.
Feces samples obtained from BDC and intact rats were pooled separately across time intervals for each animal (5% w/v) and further pooled across animals for each group to generate a 0–68 hour pooled sample. Approximately 1–2 g of each pooled feces sample was extracted as the same protocol used for plasma samples. […] The reconstituted samples were analyzed by LC-HRMS.
The reconstituted samples were analyzed by LC-HRMS, with eluent fractions collected at 10-second intervals into 96-well plates containing solid scintillant. Radioactivity in each well was determined using TopCount analysis, and radiochemical profiles were generated based on radioactivity counts. Structural elucidation was performed based on mass spectral interpretation to identify metabolites.
For metabolite profiling and identification, LC-MS analysis used a Shimadzu/Nexera LC-30 AD liquid chromatographic system and a ThermoFisher Scientific Q Exactive with a positive/negative heated electrospray interface. The column was a Waters XSelect HSS T3 4.6 mm × 250 mm, 3.5 µm and maintained at 40 °C. The mobile phases were (A) 20 mM ammonium acetate in water and (B) acetonitrile. […] The flow was 1 mL/min and split 20% to mass analysis and 80% collected for radioactivity counting. Mass spectrometry data was acquired with full scans at a resolution of 70,000 for a m/z range of 300 to 1500, and MS/MS scans were acquired at a resolution of 17,500. The mass spectrometer was operated with a normalized collision energy of 30 (ESI+), S-Lens RF level of 60, source voltage of +3.5 kV, Capillary temperature of 320 °C, and Probe heater temperature of 300 °C.

[3] = test system: primary human hepatocytes; assay: Oil-spin hepatocyte uptake assay; assay type: in vitro ADME
Procedure: Uptake studies were conducted using the oil-spin method described previously. Cryopreserved primary human hepatocytes (Lot KCN, BioIVT, Hicksville, NY) were thawed at 37 °C and re-suspended in InVitroGro-HT medium (BioIVT, Hicksville, NY). The suspension was centrifuged at 50 × g for 5 minutes at 4 °C, and the resulting pellet was re-suspended to 2 million cells/mL in ice-cold KHB buffer with 10% human serum (BioIVT, Hicksville, NY). The cell suspension was equilibrated to 37 °C in a water bath for 10 minutes with or without inhibitors. At the start of the uptake experiment, 37 °C KHB buffer containing test compounds with or without inhibitors was added to the hepatocyte suspension. At various time points, the uptake was terminated by removing portions of the suspension to microcentrifuge tubes containing a lower […] ammonium acetate layer and an upper mineral/silicone oil layer. For the 4 °C experiment, ice-cold buffer containing test compounds with or without inhibitors was added to ice-cold hepatocyte suspension, and the mixture was incubated on ice for the duration of the experiment. The microcentrifuge tubes were immediately centrifuged at 16,000 × g for 12 seconds. The tubes were then frozen on dry ice. The frozen hepatocyte pellets were cut from the tubes and transferred to −80 °C freezer until LC-MS/MS analysis. […]

Structure (SMILES) | Half-life (t1/2) in tissues [1] | Radioactivity t1/2, brain cerebellum [1] | Radioactivity t1/2, small intestine [1] | Cmax, adrenal glands ([1]; iv, 4 mg/kg) | Cmax, kidneys ([1]; iv, 4 mg/kg) | Cmax, liver ([1]; iv, 4 mg/kg) | Cmax, lungs ([1]; iv, 4 mg/kg) | Cmax, pancreas ([1]; iv, 4 mg/kg) | Cmax, salivary glands ([1]; iv, 4 mg/kg) | Cmax, spleen ([1]; iv, 4 mg/kg) | Cmax, thyroid gland ([1]; iv, 4 mg/kg) | t½ ([1]; iv, 4 mg/kg) | %Rad in bile [2] | %rad in feces [2] | %rad in urine [2] | Uptake by primary human hepatocytes at 4 °C ([3]; 4 °C) | Temperature-dependent uptake with rifamycin SV ([3]; co-administration of 1 mM rifamycin SV)
Cc1ncsc1-c1ccc(C(C)NC(=O)C2CC(O)CN2C(=O)C(c2cc(N3CCC(CN4CCC(OC5CC(Oc6cc(N7C8CCC7CN(c7cc(-[14c]9[14cH][14cH][14cH][14cH][14c]9O)nnc7N)C8)ccn6)C5)CC4)CC3)no2)C(C)C)cc1 (centres unmarked) [14C-A947] | 87 to 100 h | 11 h | 167 h | 17 µg/g | 22 µg/g | 32 µg/g | 12 µg/g | 9 µg/g | 12 µg/g | 21 µg/g | 18 µg/g | 111 h | 23.11% | 18.95% | 20.6% | – | –
Cc1ncsc1-c1ccc(C(C)NC(=O)C2CC(O)CN2C(=O)C(c2cc(N3CCC(CN4CCC(OC5CC(Oc6cc(N7C8CCC7CN(c7cc(-c9ccccc9O)nnc7N)C8)ccn6)C5)CC4)CC3)no2)C(C)C)cc1 (centres unmarked) [A947] | – | – | – | – | – | – | – | – | – | – | – | – | – | – | – | abolished | largely inhibited
